Assay results taken from ChEMBL document CHEMBL4483862, “Open-source discovery of chemical leads for next-generation chemoprotective antimalarials” (2018).

Test system: Plasmodium berghei
Assay: Luciferase/luciferin-expressing antifolate-resistant parasites were used to infect a culture of HepG2 cells that were pre-incubated with compounds. Infected hepatocytes emit light due to the luciferase reaction. Assay results are presented as the percent inhibition of light emission compared to control. […]
Format: functional
Conditions: sporozoite; for IC90: read-out: LUCIFERASE INFECTION ASSAY - IC90

Row | SMILES | IC90 [µM] | other results
1 | Cc1ccccc1OCc1occc1C(=O)Nc1cccc(-n2cnnn2)c1 | 6.83 | IC50 (HEPG2TOX_HILL_SLOPE 2.96, HEPG2TOX_R_SQUARED 0.854, PBLUC_HILL_SLOPE 2.81, PBLUC_R_SQUARED 0.577, read-out: LUCIFERASE INFECTION ASSAY - IC50): 3.12 µM
2 | COc1cc(/C=C2\COC/C(=C\c3cc(OC)c(OC)c(OC)c3)C2=O)cc(OC)c1OC | 0.888 | IC50 (HEPG2TOX_HILL_SLOPE 2.96, HEPG2TOX_R_SQUARED 0.98, PBLUC_HILL_SLOPE 14, PBLUC_R_SQUARED 0.753, read-out: LUCIFERASE INFECTION ASSAY - IC50): 0.759 µM
3 | CC(=O)c1cccc(-c2ccnc3c2CC(C(=O)NCCc2ccccc2)O3)c1 (centres undefined) | 5.14 | IC50 (HEPG2TOX_HILL_SLOPE 2.91, HEPG2TOX_R_SQUARED 0.95, PBLUC_HILL_SLOPE 2.2, PBLUC_R_SQUARED 0.478, read-out: LUCIFERASE INFECTION ASSAY - IC50): 1.89 µM
4 | COc1ccc(NC(=O)C2(C)Cc3c(-c4cccc(NC(C)=O)c4)ccnc3O2)cc1 (centres undefined) | 3.58 | IC50 (HEPG2TOX_HILL_SLOPE 2.96, HEPG2TOX_R_SQUARED 0.838, PBLUC_HILL_SLOPE 2.85, PBLUC_R_SQUARED 0.605, read-out: LUCIFERASE INFECTION ASSAY - IC50): 1.66 µM
5 | O=C1C=C/C(=N\Nc2ccc3c(c2)OCCO3)c2cccnc21 | 3.95 | IC50 (HEPG2TOX_HILL_SLOPE 2.89, HEPG2TOX_R_SQUARED 0.923, PBLUC_HILL_SLOPE 13, PBLUC_R_SQUARED 0.601, read-out: LUCIFERASE INFECTION ASSAY - IC50): 3.33 µM
6 | O=C(c1[nH]nc2ccccc12)N1CCN(Cc2ccc(C(F)(F)F)cc2)CC1 | > 10 | IC50 (HEPG2TOX_HILL_SLOPE 2.95, HEPG2TOX_R_SQUARED 0.96, PBLUC_HILL_SLOPE 4.05, PBLUC_R_SQUARED 0.587, read-out: LUCIFERASE INFECTION ASSAY - IC50): 6.61 µM
7 | Cc1cccc(OCCCC(=O)Nc2cc(C)n[nH]2)c1 | 1.35 | IC50 (HEPG2TOX_HILL_SLOPE 2.94, HEPG2TOX_R_SQUARED 0.896, PBLUC_HILL_SLOPE 6.3, PBLUC_R_SQUARED 0.571, read-out: LUCIFERASE INFECTION ASSAY - IC50): 0.951 µM
8 | CCOc1ccc(S(=O)(=O)Nc2cc3c(C(=O)OC(C)C)c(C)oc3c3ccccc23)cc1 | 2.86 | IC50 (HEPG2TOX_HILL_SLOPE 2.94, HEPG2TOX_R_SQUARED 0.937, PBLUC_HILL_SLOPE 3.2, PBLUC_R_SQUARED 0.642, read-out: LUCIFERASE INFECTION ASSAY - IC50): 1.44 µM
9 | Nc1nccnc1C(=O)NNC(=O)c1cc2c(s1)CCCCCC2 | 3.7 | IC50 (HEPG2TOX_HILL_SLOPE 2.95, HEPG2TOX_R_SQUARED 0.777, PBLUC_HILL_SLOPE 11, PBLUC_R_SQUARED 0.184, read-out: LUCIFERASE INFECTION ASSAY - IC50): 3.03 µM
10 | Cc1nn(Cc2ccccc2Cl)c(C)c1CN(C)C(=O)/C=C/c1cnn(-c2ccccc2)c1 | 9.8 | IC50 (HEPG2TOX_HILL_SLOPE 2.95, HEPG2TOX_R_SQUARED 0.991, PBLUC_HILL_SLOPE 3.77, PBLUC_R_SQUARED 0.729, read-out: LUCIFERASE INFECTION ASSAY - IC50): 5.47 µM
11 | O=C(/C=C/c1ccco1)Nc1ccc(Cl)c(Cl)c1 | 11.3 | IC50 (HEPG2TOX_HILL_SLOPE 2.91, HEPG2TOX_R_SQUARED 0.987, PBLUC_HILL_SLOPE 6.61, PBLUC_R_SQUARED 0.512, read-out: LUCIFERASE INFECTION ASSAY - IC50): 8.1 µM
12 | Cc1cccc2c(=O)nc(CSc3ncnc4sc(-c5ccccc5)cc34)[nH]c12 | > 10 | IC50 (HEPG2TOX_HILL_SLOPE 2.96, HEPG2TOX_R_SQUARED 0.569, read-out: LUCIFERASE INFECTION ASSAY - IC50): > 10 µM
13 | Cn1cnc2cnc(Nc3ccc(F)c(Cl)c3)cc21 | > 10 | IC50 (HEPG2TOX_HILL_SLOPE 2.92, HEPG2TOX_R_SQUARED 0.693, read-out: LUCIFERASE INFECTION ASSAY - IC50): > 10 µM
14 | COc1ccc(OC)c(CCNc2nc3cnc(-c4ccc5c(c4)OCO5)cc3n2C)c1 | 2.5 | IC50 (HEPG2TOX_HILL_SLOPE 2.94, HEPG2TOX_R_SQUARED 0.93, PBLUC_HILL_SLOPE 1.47, PBLUC_R_SQUARED 0.742, read-out: LUCIFERASE INFECTION ASSAY - IC50): 0.558 µM
15 | CCOC(=O)c1sc2ncnc(NCCC(O)(c3ccc(C)o3)C(F)(F)F)c2c1C (centres undefined) | 3.68 | IC50 (HEPG2TOX_HILL_SLOPE 2.98, HEPG2TOX_R_SQUARED 0.521, PBLUC_HILL_SLOPE 13.8, PBLUC_R_SQUARED 0.46, read-out: LUCIFERASE INFECTION ASSAY - IC50): 3.14 µM
16 | CCOc1ccc(C(C)=O)cc1CSc1nc2ccccc2c(=O)n1C(C)COC (centres undefined) | 3.98 | IC50 (HEPG2TOX_HILL_SLOPE 2.93, HEPG2TOX_R_SQUARED 0.419, PBLUC_HILL_SLOPE 1.84, PBLUC_R_SQUARED 0.699, read-out: LUCIFERASE INFECTION ASSAY - IC50): 1.21 µM

Row | SMILES | IC90 [µM] | other results
17 | COc1ccc(N(Cc2nc(-c3cccs3)oc2C)S(=O)(=O)c2cccs2)cc1 | 0.446 | IC50 (HEPG2TOX_HILL_SLOPE 2.9, HEPG2TOX_R_SQUARED 0.761, PBLUC_HILL_SLOPE 1.87, PBLUC_R_SQUARED 0.806, read-out: LUCIFERASE INFECTION ASSAY - IC50): 0.137 µM
18 | CNc1ccccc1C(=O)N/N=C/c1cc(Cl)cc(Cl)c1O | > 9.76 | IC50 (HEPG2TOX_HILL_SLOPE 2.97, HEPG2TOX_R_SQUARED 0.147, PBLUC_HILL_SLOPE 9.98, PBLUC_R_SQUARED 0.459, read-out: LUCIFERASE INFECTION ASSAY - IC50): > 9.76 µM
19 | C/C=C/c1ccc(Oc2nc(C(F)(F)F)nc3ccccc23)c(OC)c1 | 6.79 | IC50 (HEPG2TOX_HILL_SLOPE 2.94, HEPG2TOX_R_SQUARED 0.97, PBLUC_HILL_SLOPE 2.81, PBLUC_R_SQUARED 0.724, read-out: LUCIFERASE INFECTION ASSAY - IC50): 3.1 µM
20 | O=C(NC1CC1)c1csc(C(O)c2cccc(C(F)(F)F)c2)n1 (centres undefined) | 1.14 | IC50 (HEPG2TOX_HILL_SLOPE 2.89, HEPG2TOX_R_SQUARED 0.879, PBLUC_HILL_SLOPE 2.14, PBLUC_R_SQUARED 0.663, read-out: LUCIFERASE INFECTION ASSAY - IC50): 0.408 µM
21 | CCCN(CC(=O)Nc1ccc(Cl)cc1Cl)C(=O)c1cn2ccccc2n1 | > 10 | IC50 (HEPG2TOX_HILL_SLOPE 2.93, HEPG2TOX_R_SQUARED 0.207, PBLUC_HILL_SLOPE 1.46, PBLUC_R_SQUARED 0.174, read-out: LUCIFERASE INFECTION ASSAY - IC50): > 10 µM
22 | O=C(Nc1nc(CN2CCCC2)cs1)c1ccc(-c2ccccc2)cc1 | > 10 | IC50 (HEPG2TOX_HILL_SLOPE 2.9, HEPG2TOX_R_SQUARED 0.919, read-out: LUCIFERASE INFECTION ASSAY - IC50): > 10 µM
23 | Oc1cccc(-c2cnc3cnc(-c4ccccc4Cl)cn23)c1 | > 10.3 | IC50 (HEPG2TOX_HILL_SLOPE 2.92, HEPG2TOX_R_SQUARED 0.924, PBLUC_HILL_SLOPE 1.11, PBLUC_R_SQUARED 0.809, read-out: LUCIFERASE INFECTION ASSAY - IC50): 1.72 µM
24 | Cn1c(-c2ccccc2)nc2cnc(Nc3cccc(OC(F)(F)F)c3)cc21 | 2.38 | IC50 (HEPG2TOX_HILL_SLOPE 2.98, HEPG2TOX_R_SQUARED 0.826, PBLUC_HILL_SLOPE 1.94, PBLUC_R_SQUARED 0.665, read-out: LUCIFERASE INFECTION ASSAY - IC50): 0.764 µM
25 | COc1ccc(CN2CCN(C(=O)c3ccc(-n4cccn4)cc3)CC2)cc1F | > 10 | IC50 (HEPG2TOX_HILL_SLOPE 2.97, HEPG2TOX_R_SQUARED 0.899, PBLUC_HILL_SLOPE 2, PBLUC_R_SQUARED 0.568, read-out: LUCIFERASE INFECTION ASSAY - IC50): 3.44 µM
26 | CCCOc1c(Cl)cc(C(=O)Nc2nonc2-c2cccs2)cc1Cl | 2.87 | IC50 (HEPG2TOX_HILL_SLOPE 2.94, HEPG2TOX_R_SQUARED 0.74, PBLUC_HILL_SLOPE 28.4, PBLUC_R_SQUARED 0.116, read-out: LUCIFERASE INFECTION ASSAY - IC50): 2.66 µM
27 | Cc1n[n+]2c3c(cnc2s1)CC/C3=C/c1ccccc1 | 9.79 | IC50 (HEPG2TOX_HILL_SLOPE 2.96, HEPG2TOX_R_SQUARED 0.5, PBLUC_HILL_SLOPE 7.3, PBLUC_R_SQUARED 0.698, read-out: LUCIFERASE INFECTION ASSAY - IC50): 7.25 µM
28 | Cc1ccc(C(=O)Nc2nc3ccccn3c2C(=O)NC2CCCCC2)cc1 | 1.16 | IC50 (HEPG2TOX_HILL_SLOPE 2.97, HEPG2TOX_R_SQUARED 0.276, PBLUC_HILL_SLOPE 14.7, PBLUC_R_SQUARED 0.56, read-out: LUCIFERASE INFECTION ASSAY - IC50): 1 µM
29 | COc1ccc(CNc2nc(C)nc3scc(-c4cccs4)c23)cn1 | > 10 | IC50 (HEPG2TOX_HILL_SLOPE 2.96, HEPG2TOX_R_SQUARED 0.967, read-out: LUCIFERASE INFECTION ASSAY - IC50): > 10 µM
30 | CC(C)NC(=O)N1CCc2nc(NCc3cccc(Oc4ccccc4)c3)ncc2C1 | 3.31 | IC50 (HEPG2TOX_HILL_SLOPE 2.9, HEPG2TOX_R_SQUARED 0.984, PBLUC_HILL_SLOPE 15.1, PBLUC_R_SQUARED 0.233, read-out: LUCIFERASE INFECTION ASSAY - IC50): 2.86 µM
31 | CC(=O)Nc1ccc(-c2cnc3ccc(-c4ccccc4)nn23)cc1 | 3.8 | IC50 (HEPG2TOX_HILL_SLOPE 2.97, HEPG2TOX_R_SQUARED 0.938, PBLUC_HILL_SLOPE 2.21, PBLUC_R_SQUARED 0.595, read-out: LUCIFERASE INFECTION ASSAY - IC50): 1.4 µM
32 | CN(C)CCNc1cc(-c2ccco2)nc2ccccc12 | 9.18 | IC50 (HEPG2TOX_HILL_SLOPE 2.93, HEPG2TOX_R_SQUARED 0.885, PBLUC_HILL_SLOPE 3.51, PBLUC_R_SQUARED 0.62, read-out: LUCIFERASE INFECTION ASSAY - IC50): 4.91 µM
